Measurements as given in ChEMBL document CHEMBL5724914, “Linking interpersonal differences in gut microbiota composition and drug biotransformation activity” (2024).

How the values were obtained:
[1] = The drug is tested on WLS-098 corresponding to human gut metagenome with ENA study accession number: PRJEB37062 and ENA sample accession number: ERS12561754 for biotransformation under anaerobic condition. The drug concentrations were measured over 9 timepoints collected between 0 and 24 hours of incubation by liquid-chromatography-coupled mass spectrometry (LC–MS); conditions: 2 µM
[2] = human gut metagenome, 24 h, 2 µM
[3] = The drug is tested on Z-022 corresponding to mouse gut metagenome with ENA study accession number: PRJEB37062 and ENA sample accession number: ERS12561821 for biotransformation under anaerobic condition. The drug concentrations were measured over 9 timepoints collected between 0 and 24 hours of incubation by liquid-chromatography-coupled mass spectrometry (LC–MS); conditions: 2 µM
[4] = The drug is tested on WLS-038 corresponding to human gut metagenome with ENA study accession number: PRJEB37062 and ENA sample accession number: ERS12561745 for biotransformation under anaerobic condition. The drug concentrations were measured over 9 timepoints collected between 0 and 24 hours of incubation by liquid-chromatography-coupled mass spectrometry (LC–MS); conditions: 2 µM
[5] = The drug is tested on WLS-069 corresponding to human gut metagenome with ENA study accession number: PRJEB37062 and ENA sample accession number: ERS12561748 for biotransformation under anaerobic condition. The drug concentrations were measured over 9 timepoints collected between 0 and 24 hours of incubation by liquid-chromatography-coupled mass spectrometry (LC–MS); conditions: 2 µM
[6] = The drug is tested on WLS-310 corresponding to human gut metagenome with ENA study accession number: PRJEB37062 and ENA sample accession number: ERS12561785 for biotransformation under anaerobic condition. The drug concentrations were measured over 9 timepoints collected between 0 and 24 hours of incubation by liquid-chromatography-coupled mass spectrometry (LC–MS); conditions: 2 µM
[7] = The drug is tested on Z-018 corresponding to pig gut metagenome with ENA study accession number: PRJEB37062 and ENA sample accession number: ERS12561817 for biotransformation under anaerobic condition. The drug concentrations were measured over 9 timepoints collected between 0 and 24 hours of incubation by liquid-chromatography-coupled mass spectrometry (LC–MS); conditions: 2 µM
[8] = The drug is tested on WLS-039 corresponding to human gut metagenome with ENA study accession number: PRJEB37062 and ENA sample accession number: ERS12561746 for biotransformation under anaerobic condition. The drug concentrations were measured over 9 timepoints collected between 0 and 24 hours of incubation by liquid-chromatography-coupled mass spectrometry (LC–MS); conditions: 2 µM
[9] = human gut metagenome, 24 h, 2 µM; remark: listed apart in the source
[10] = human gut metagenome, 24 h, 2 µM; remark: listed apart in the source
[11] = human gut metagenome, 24 h, 2 µM; remark: listed apart in the source
[12] = The drug is tested on WLS-006 corresponding to human gut metagenome with ENA study accession number: PRJEB37062 and ENA sample accession number: ERS12561741 for biotransformation under anaerobic condition. The drug concentrations were measured over 9 timepoints collected between 0 and 24 hours of incubation by liquid-chromatography-coupled mass spectrometry (LC–MS); conditions: 2 µM
[13] = The drug is tested on Z-029 corresponding to rat gut metagenome with ENA study accession number: PRJEB37062 and ENA sample accession number: ERS12561828 for biotransformation under anaerobic condition. The drug concentrations were measured over 9 timepoints collected between 0 and 24 hours of incubation by liquid-chromatography-coupled mass spectrometry (LC–MS); conditions: 2 µM
[14] = The drug is tested on Z-020 corresponding to rabbit gut metagenome with ENA study accession number: PRJEB37062 and ENA sample accession number: ERS12561819 for biotransformation under anaerobic condition. The drug concentrations were measured over 9 timepoints collected between 0 and 24 hours of incubation by liquid-chromatography-coupled mass spectrometry (LC–MS); conditions: 2 µM
[15] = human gut metagenome, 24 h, 2 µM; remark: listed apart in the source
[16] = The drug is tested on Z-008 corresponding to metagenome with ENA study accession number: PRJEB37062 and ENA sample accession number: ERS12561808 for biotransformation under anaerobic condition. The drug concentrations were measured over 9 timepoints collected between 0 and 24 hours of incubation by liquid-chromatography-coupled mass spectrometry (LC–MS); conditions: 2 µM
[17] = The drug is tested on Z-019 corresponding to rat gut metagenome with ENA study accession number: PRJEB37062 and ENA sample accession number: ERS12561818 for biotransformation under anaerobic condition. The drug concentrations were measured over 9 timepoints collected between 0 and 24 hours of incubation by liquid-chromatography-coupled mass spectrometry (LC–MS); conditions: 2 µM
[18] = human gut metagenome, 24 h, 2 µM; remark: listed apart in the source
[19] = The drug is tested on WLS-073 corresponding to human gut metagenome with ENA study accession number: PRJEB37062 and ENA sample accession number: ERS12561749 for biotransformation under anaerobic condition. The drug concentrations were measured over 9 timepoints collected between 0 and 24 hours of incubation by liquid-chromatography-coupled mass spectrometry (LC–MS); conditions: 2 µM
[20] = The drug is tested on Z-028 corresponding to mouse gut metagenome with ENA study accession number: PRJEB37062 and ENA sample accession number: ERS12561827 for biotransformation under anaerobic condition. The drug concentrations were measured over 9 timepoints collected between 0 and 24 hours of incubation by liquid-chromatography-coupled mass spectrometry (LC–MS); conditions: 2 µM
Further: call rule not given here.

SMILES	Bacterial Biotransformation [1]	Bacterial Biotransformation [2]	Bacterial Biotransformation [3]	Bacterial Biotransformation [4]	Bacterial Biotransformation [5]	Bacterial Biotransformation [6]	Bacterial Biotransformation [7]	Bacterial Biotransformation [8]	Bacterial Biotransformation [9]	Bacterial Biotransformation [10]	Bacterial Biotransformation [11]	Bacterial Biotransformation [12]	Bacterial Biotransformation [13]	Bacterial Biotransformation [14]	Bacterial Biotransformation [15]	Bacterial Biotransformation [16]	Bacterial Biotransformation [17]	Bacterial Biotransformation [18]	Bacterial Biotransformation [19]	Bacterial Biotransformation [20]
c1ccc2[nH]c(-c3cscn3)nc2c1 [THIABENDAZOLE]	Compound metabolized	Compound NOT metabolized	Compound NOT metabolized	Compound NOT metabolized	Compound NOT metabolized	Compound NOT metabolized	Compound NOT metabolized	Compound NOT metabolized	Compound metabolized	Compound NOT metabolized	Compound NOT metabolized	Compound NOT metabolized	Compound NOT metabolized	Compound NOT metabolized	Compound NOT metabolized	Compound NOT metabolized	Compound NOT metabolized	Compound NOT metabolized	Compound NOT metabolized	Compound NOT metabolized
CCN(CC)CCNC(=O)c1cc(S(C)(=O)=O)ccc1OC [TIAPRIDE]	Compound metabolized	Compound NOT metabolized	Compound NOT metabolized	Compound NOT metabolized	Compound NOT metabolized	Compound metabolized	Compound NOT metabolized	Compound NOT metabolized	Compound metabolized	Compound NOT metabolized	Compound NOT metabolized	Compound NOT metabolized	Compound NOT metabolized	Compound NOT metabolized	Compound NOT metabolized	Compound NOT metabolized	Compound NOT metabolized	Compound NOT metabolized	Compound NOT metabolized	Compound NOT metabolized
CC(C)(C)NC[C@H](O)COc1nsnc1N1CCOCC1.O=C(O)/C=C\C(=O)O [TIMOLOL MALEATE]	Compound NOT metabolized	Compound NOT metabolized	Compound NOT metabolized	Compound NOT metabolized	Compound NOT metabolized	Compound NOT metabolized	Compound NOT metabolized	Compound NOT metabolized	Compound NOT metabolized	Compound NOT metabolized	Compound NOT metabolized	Compound NOT metabolized	Compound NOT metabolized	Compound NOT metabolized	Compound NOT metabolized	Compound NOT metabolized	Compound NOT metabolized	Compound NOT metabolized	Compound NOT metabolized	Compound NOT metabolized
CC[C@@]1(O)C(=O)OCc2c1cc1n(c2=O)Cc2cc3c(CN(C)C)c(O)ccc3nc2-1 [TOPOTECAN]	Compound NOT metabolized	Compound NOT metabolized	Compound NOT metabolized	Compound NOT metabolized	Compound NOT metabolized	Compound NOT metabolized	Compound NOT metabolized	Compound NOT metabolized	Compound NOT metabolized	Compound NOT metabolized	Compound NOT metabolized	Compound NOT metabolized	Compound NOT metabolized	Compound NOT metabolized	Compound NOT metabolized	Compound NOT metabolized	Compound NOT metabolized	Compound NOT metabolized	Compound NOT metabolized	Compound NOT metabolized
COc1ccc(C(CN(C)C)C2(O)CCCCC2)cc1 (stereo not given) [VENLAFAXINE]	Compound NOT metabolized	Compound NOT metabolized	Compound NOT metabolized	Compound NOT metabolized	Compound NOT metabolized	Compound metabolized	Compound NOT metabolized	Compound NOT metabolized	Compound NOT metabolized	Compound NOT metabolized	Compound NOT metabolized	Compound NOT metabolized	Compound NOT metabolized	Compound NOT metabolized	Compound NOT metabolized	Compound NOT metabolized	Compound NOT metabolized	Compound NOT metabolized	Compound NOT metabolized	Compound NOT metabolized
